Experiments:
Assay in all cases: relative viability (nuclei count vs DMSO), 5 days (fraction); higher = more cells survive
201T = test system: 201T
In short: (§1)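 Relative viability equals treated-well nuclei counts divided by vehicle-well nuclei counts. Counts came from 4× images of lung cancer cell lines grown in 1536-well plates for 5 days after pin-tool dosing on the day after seeding. Dosing used one drug alone or a fixed anchor-drug dose plus five library-drug doses (not always all listed) in √10 steps, and values are medians of duplicate plates.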

A-427 = test system: A-427
In short: as §1

BEN = test system: BEN
In short: as §1

COR-L 105 = test system: COR-L 105
In short: as §1

COR-L23 = test system: COR-L23
In short: as §1

EKVX = test system: EKVX
In short: as §1

EMC-BAC-2 = test system: EMC-BAC-2
In short: as §1

HCC-15 = test system: HCC-15
In short: as §1

HOP-62 = test system: HOP-62
In short: as §1

LK-2 = test system: LK-2
In short: as §1

NCI-H1563 = test system: NCI-H1563
In short: as §1

NCI-H1734 = test system: NCI-H1734
In short: as §1

NCI-H1915 = test system: NCI-H1915
In short: as §1

NCI-H1993 = test system: NCI-H1993
In short: as §1

NCI-H2405 = test system: NCI-H2405
In short: as §1

NCI-H460 = test system: NCI-H460
In short: as §1

NCI-H522 = test system: NCI-H522
In short: as §1

NCI-H647 = test system: NCI-H647
In short: as §1

NCI-H661 = test system: NCI-H661
In short: as §1

PC-14 = test system: PC-14
In short: as §1

SK-MES-1 = test system: SK-MES-1
In short: as §1

Cc1csc(=NC2CCCCC2)n1/N=C/c1ccc(O)c(O)c1O [MIM1] + CCNC(=O)c1noc(-c2cc(C(C)C)c(O)cc2O)c1-c1ccc(CN2CCOCC2)cc1 [Luminespib] (partner 0.01 µM)
relative viability (201T; first compound 0.2 µM): 1.03 | relative viability (201T; first compound 0.6325 µM): 1.05 | relative viability (201T; first compound 2 µM): 1.03 | relative viability (201T; first compound 6.325 µM): 0.548 | relative viability (201T; first compound 20 µM): 0.368 | relative viability (A-427; first compound 0.2 µM): 0.832 | relative viability (A-427; first compound 0.6325 µM): 1.06 | relative viability (A-427; first compound 2 µM): 0.955 | relative viability (A-427; first compound 6.325 µM): 0.747 | relative viability (A-427; first compound 20 µM): 0.267 | relative viability (BEN; first compound 0.2 µM): 0.249 | relative viability (BEN; first compound 0.6325 µM): 1.24 | relative viability (BEN; first compound 2 µM): 0.36 | relative viability (BEN; first compound 6.325 µM): 0.329 | relative viability (BEN; first compound 20 µM): 0.173 | relative viability (COR-L 105; first compound 0.2 µM): 0.721 | relative viability (COR-L 105; first compound 0.6325 µM): 0.918 | relative viability (COR-L 105; first compound 2 µM): 0.813 | relative viability (COR-L 105; first compound 6.325 µM): 0.642 | relative viability (COR-L 105; first compound 20 µM): 0.801 | relative viability (COR-L23; first compound 0.2 µM): 0.555 | relative viability (COR-L23; first compound 0.6325 µM): 0.75 | relative viability (COR-L23; first compound 2 µM): 0.7 | relative viability (COR-L23; first compound 6.325 µM): 0.469 | relative viability (COR-L23; first compound 20 µM): 0.321 | relative viability (EKVX; first compound 0.2 µM): 0.863 | relative viability (EKVX; first compound 0.6325 µM): 0.766 | relative viability (EKVX; first compound 2 µM): 0.832 | relative viability (EKVX; first compound 6.325 µM): 0.701 | relative viability (EKVX; first compound 20 µM): 0.617 | relative viability (EMC-BAC-2; first compound 0.2 µM): 1.12 | relative viability (EMC-BAC-2; first compound 0.6325 µM): 1.14 | relative viability (EMC-BAC-2; first compound 2 µM): 1.13 | relative viability (EMC-BAC-2; first compound 6.325 µM): 1.03 | relative viability (EMC-BAC-2; first compound 20 µM): 0.423 | relative viability (HCC-15; first compound 0.2 µM): 0.244 | relative viability (HCC-15; first compound 0.6325 µM): 0.353 | relative viability (HCC-15; first compound 2 µM): 0.43 | relative viability (HCC-15; first compound 6.325 µM): 0.259 | relative viability (HCC-15; first compound 20 µM): 0.133 | relative viability (HOP-62; first compound 0.2 µM): 1.01 | relative viability (HOP-62; first compound 0.6325 µM): 0.841 | relative viability (HOP-62; first compound 2 µM): 0.893 | relative viability (HOP-62; first compound 6.325 µM): 0.758 | relative viability (HOP-62; first compound 20 µM): 0.301 | relative viability (LK-2; first compound 0.2 µM): 0.16 | relative viability (LK-2; first compound 2 µM): 0.169 | relative viability (LK-2; first compound 6.325 µM): 0.195 | relative viability (LK-2; first compound 20 µM): 0.171 | relative viability (NCI-H1563; first compound 0.2 µM): 0.51 | relative viability (NCI-H1563; first compound 0.6325 µM): 0.607 | relative viability (NCI-H1563; first compound 2 µM): 0.519 | relative viability (NCI-H1563; first compound 6.325 µM): 0.553 | relative viability (NCI-H1563; first compound 20 µM): 0.362 | relative viability (NCI-H1734; first compound 0.2 µM): 0.0909 | relative viability (NCI-H1734; first compound 0.6325 µM): 0.233 | relative viability (NCI-H1734; first compound 2 µM): 0.198 | relative viability (NCI-H1734; first compound 6.325 µM): 0.168 | relative viability (NCI-H1734; first compound 20 µM): 0.157 | relative viability (NCI-H1915; first compound 0.2 µM): 0.743 | relative viability (NCI-H1915; first compound 0.6325 µM): 0.641 | relative viability (NCI-H1915; first compound 2 µM): 0.685 | relative viability (NCI-H1915; first compound 6.325 µM): 0.579 | relative viability (NCI-H1915; first compound 20 µM): 0.183 | relative viability (NCI-H1993; first compound 0.2 µM): 0.441 | relative viability (NCI-H1993; first compound 0.6325 µM): 0.663 | relative viability (NCI-H1993; first compound 2 µM): 0.652 | relative viability (NCI-H1993; first compound 6.325 µM): 0.633 | relative viability (NCI-H1993; first compound 20 µM): 0.499 | relative viability (NCI-H2405; first compound 0.2 µM): 0.68 | relative viability (NCI-H2405; first compound 0.6325 µM): 0.92 | relative viability (NCI-H2405; first compound 2 µM): 0.654 | relative viability (NCI-H2405; first compound 6.325 µM): 0.543 | relative viability (NCI-H2405; first compound 20 µM): 0.403 | relative viability (NCI-H460; first compound 0.2 µM): 0.0272 | relative viability (NCI-H460; first compound 0.6325 µM): 0.0322 | relative viability (NCI-H460; first compound 2 µM): 0.0432 | relative viability (NCI-H460; first compound 6.325 µM): 0.0284 | relative viability (NCI-H460; first compound 20 µM): 0.0278 | relative viability (NCI-H522; first compound 0.2 µM): 1.23 | relative viability (NCI-H522; first compound 0.6325 µM): 1.05 | relative viability (NCI-H522; first compound 2 µM): 1.03 | relative viability (NCI-H522; first compound 6.325 µM): 1.19 | relative viability (NCI-H522; first compound 20 µM): 0.494 | relative viability (NCI-H647; first compound 0.2 µM): 0.147 | relative viability (NCI-H647; first compound 0.6325 µM): 0.271 | relative viability (NCI-H647; first compound 2 µM): 0.18 | relative viability (NCI-H647; first compound 6.325 µM): 0.198 | relative viability (NCI-H647; first compound 20 µM): 0.0924 | relative viability (NCI-H661; first compound 0.2 µM): 0.92 | relative viability (NCI-H661; first compound 0.6325 µM): 0.928 | relative viability (NCI-H661; first compound 2 µM): 0.86 | relative viability (NCI-H661; first compound 6.325 µM): 0.576 | relative viability (NCI-H661; first compound 20 µM): 0.269 | relative viability (PC-14; first compound 0.2 µM): 0.177 | relative viability (PC-14; first compound 0.6325 µM): 0.137 | relative viability (PC-14; first compound 2 µM): 0.17 | relative viability (PC-14; first compound 6.325 µM): 0.115 | relative viability (PC-14; first compound 20 µM): 0.144 | relative viability (SK-MES-1; first compound 0.2 µM): 0.754 | relative viability (SK-MES-1; first compound 0.6325 µM): 0.828 | relative viability (SK-MES-1; first compound 2 µM): 0.708 | relative viability (SK-MES-1; first compound 6.325 µM): 0.55 | relative viability (SK-MES-1; first compound 20 µM): 0.215

Source: the supplement of paper PMC10307832
